Laboratory results: patent US12458587B2, “Hypoallergenic composition for skin regeneration or skin soothing, containing culture product or extract of Aureobasidium pullulans strain” (AMOREPACIFIC CORPORATION, priority 2018, dated 2025)

What was measured:
[1] = system: rabbit eye; conditions: 5%; cited from earlier work
[2] = system: keratinocytes (HaCaT); assay: Scratch wound healing on keratinocyte monolayer (skin-regenerating effect); type: cell-based, human; conditions: relative to scratched area as 100%, 12 ppm (positive control 10% FBS), n=4
Method: A linear scratch wound was made on a monolayer of keratinocytes (HaCaT). The HaCaT cells were cultured using Dulbecco's modified Eagle's medium (DMEM, Lonza, USA) containing 10% fetal bovine serum (FBS, GIBCO, USA) in a 5% CO2 incubator at 37° C. Immediately after the application of a scratch, the medium was replaced with a fresh medium containing the sample to be tested and the effect of the test sample on skin regeneration was investigated. The regeneration of the cells on the scratched area was imaged with a time-lapse microscope for 36 hours with 30-minute intervals and wound healing area (%) was compared relative the scratched area (as 100%) (n=4 per group).

| Substance | eye irritation in the Draize rabbit eye test [1] | Wound healing area (%) 12 hours later [2] | Wound healing area (%) 24 hours later [2] | Wound healing area (%) 36 hours later [2] | Wound healing area (%) Immediately after scratching [2] |
| --- | --- | --- | --- | --- | --- |
| sodium magnesium lauryl-myristyl-6-ethoxy-sulfate [Texapon Asv®] | moderate irritation |  |  |  |  |
| Madecassoside |  | 33.56% | 54.56% | 62.48% | 0% |
